The source of these data is PMC7026418, “The kinase polypharmacology landscape of clinical PARP inhibitors” (Scientific Reports, 2020).

Molecules are shown by their SMILES. Read-outs that look alike come from different tables or passages of the source.

Holding throughout (assay): biochemical
Common to all, as to set-up: DiscoveRx KINOMEscan active site-directed competition binding; percent of control kinase bound to immobilised ligand

For experiment [1], the target named is NEK7 (Homo sapiens, UniProt Q8TDX7).
Sequence of NEK7 (Q8TDX7 whole entry): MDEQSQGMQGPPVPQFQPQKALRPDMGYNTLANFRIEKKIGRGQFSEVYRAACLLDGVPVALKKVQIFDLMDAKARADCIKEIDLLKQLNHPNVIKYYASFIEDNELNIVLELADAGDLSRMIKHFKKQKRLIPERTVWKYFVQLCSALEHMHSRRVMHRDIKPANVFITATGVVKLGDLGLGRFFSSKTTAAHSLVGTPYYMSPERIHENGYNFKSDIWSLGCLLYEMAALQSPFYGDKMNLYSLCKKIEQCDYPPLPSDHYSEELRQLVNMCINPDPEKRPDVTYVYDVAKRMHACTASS
In experiment [2] the target is T1, TAOK2 (Homo sapiens, UniProt Q9UL54).
T1 sequence (Q9UL54 1-1235): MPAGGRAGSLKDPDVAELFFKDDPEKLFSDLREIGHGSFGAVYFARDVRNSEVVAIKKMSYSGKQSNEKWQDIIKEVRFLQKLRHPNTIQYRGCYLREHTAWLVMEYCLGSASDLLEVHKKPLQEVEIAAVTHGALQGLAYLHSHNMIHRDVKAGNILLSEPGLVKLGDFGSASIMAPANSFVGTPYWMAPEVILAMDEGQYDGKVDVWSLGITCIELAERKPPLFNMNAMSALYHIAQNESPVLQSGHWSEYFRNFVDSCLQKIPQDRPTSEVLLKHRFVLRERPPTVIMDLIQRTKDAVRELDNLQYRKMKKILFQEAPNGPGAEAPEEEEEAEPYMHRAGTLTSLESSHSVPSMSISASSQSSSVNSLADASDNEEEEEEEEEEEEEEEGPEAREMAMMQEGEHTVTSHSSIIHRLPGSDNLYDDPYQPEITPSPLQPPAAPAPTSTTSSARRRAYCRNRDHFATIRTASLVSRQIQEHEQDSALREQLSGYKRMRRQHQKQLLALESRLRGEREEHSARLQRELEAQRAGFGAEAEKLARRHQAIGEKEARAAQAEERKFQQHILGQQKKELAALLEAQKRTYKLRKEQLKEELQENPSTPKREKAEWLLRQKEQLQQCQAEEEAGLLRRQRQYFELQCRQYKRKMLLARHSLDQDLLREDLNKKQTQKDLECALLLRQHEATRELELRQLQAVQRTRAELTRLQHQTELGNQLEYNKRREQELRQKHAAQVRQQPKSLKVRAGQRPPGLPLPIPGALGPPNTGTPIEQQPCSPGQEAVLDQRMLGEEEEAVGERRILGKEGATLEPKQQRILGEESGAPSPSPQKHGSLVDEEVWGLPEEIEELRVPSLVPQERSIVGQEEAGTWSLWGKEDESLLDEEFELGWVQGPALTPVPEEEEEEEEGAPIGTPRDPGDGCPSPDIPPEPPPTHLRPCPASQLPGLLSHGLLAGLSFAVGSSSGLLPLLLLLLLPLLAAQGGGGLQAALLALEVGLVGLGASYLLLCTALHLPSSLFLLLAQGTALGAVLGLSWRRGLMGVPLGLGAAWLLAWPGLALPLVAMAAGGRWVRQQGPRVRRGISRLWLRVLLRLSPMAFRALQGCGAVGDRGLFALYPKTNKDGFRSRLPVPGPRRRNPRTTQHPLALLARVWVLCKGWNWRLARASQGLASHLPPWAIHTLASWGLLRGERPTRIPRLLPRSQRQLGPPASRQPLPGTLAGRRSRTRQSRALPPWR

Experiment [3] has as its target EGFR(L747-S752del, P753S) (Homo sapiens, UniProt P00533, DEL747-752/P753S).
The target of experiment [4] is T2, CDC2L2 (Homo sapiens, UniProt Q9UQ88).
T2 construct: gene CDK11A
T2 sequence (Q9UQ88 1-783): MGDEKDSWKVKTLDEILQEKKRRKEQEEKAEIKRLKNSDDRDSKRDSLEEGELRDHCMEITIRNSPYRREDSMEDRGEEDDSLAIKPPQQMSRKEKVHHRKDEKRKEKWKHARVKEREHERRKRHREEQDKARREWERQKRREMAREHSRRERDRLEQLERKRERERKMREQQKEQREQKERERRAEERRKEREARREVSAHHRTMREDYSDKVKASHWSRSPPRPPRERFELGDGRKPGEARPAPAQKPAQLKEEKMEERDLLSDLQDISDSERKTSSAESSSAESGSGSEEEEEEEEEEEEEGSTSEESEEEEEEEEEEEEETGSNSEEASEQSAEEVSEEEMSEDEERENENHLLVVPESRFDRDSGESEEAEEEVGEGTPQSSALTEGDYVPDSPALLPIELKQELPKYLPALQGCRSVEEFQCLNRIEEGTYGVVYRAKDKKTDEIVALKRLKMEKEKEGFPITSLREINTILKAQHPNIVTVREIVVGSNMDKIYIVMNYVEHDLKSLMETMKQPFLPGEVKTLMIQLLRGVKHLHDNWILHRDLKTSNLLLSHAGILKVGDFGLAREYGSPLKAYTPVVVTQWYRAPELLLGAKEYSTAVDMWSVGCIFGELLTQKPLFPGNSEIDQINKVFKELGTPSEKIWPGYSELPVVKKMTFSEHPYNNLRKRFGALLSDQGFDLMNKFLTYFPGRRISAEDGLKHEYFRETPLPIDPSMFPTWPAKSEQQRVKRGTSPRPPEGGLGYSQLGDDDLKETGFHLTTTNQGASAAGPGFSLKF

Experiment [5] has as its target CDKL3 (Homo sapiens, UniProt Q8IVW4).
Experiment [6] concerns the target T3, RPS6KA5(Kin.Dom.2-C-terminal) (Homo sapiens, UniProt O75582).
T3 construct: Kin.Dom.2-C-terminal

In experiment [7] the target is WEE1 (Homo sapiens, UniProt P30291).
Sequence of WEE1 (P30291 whole entry): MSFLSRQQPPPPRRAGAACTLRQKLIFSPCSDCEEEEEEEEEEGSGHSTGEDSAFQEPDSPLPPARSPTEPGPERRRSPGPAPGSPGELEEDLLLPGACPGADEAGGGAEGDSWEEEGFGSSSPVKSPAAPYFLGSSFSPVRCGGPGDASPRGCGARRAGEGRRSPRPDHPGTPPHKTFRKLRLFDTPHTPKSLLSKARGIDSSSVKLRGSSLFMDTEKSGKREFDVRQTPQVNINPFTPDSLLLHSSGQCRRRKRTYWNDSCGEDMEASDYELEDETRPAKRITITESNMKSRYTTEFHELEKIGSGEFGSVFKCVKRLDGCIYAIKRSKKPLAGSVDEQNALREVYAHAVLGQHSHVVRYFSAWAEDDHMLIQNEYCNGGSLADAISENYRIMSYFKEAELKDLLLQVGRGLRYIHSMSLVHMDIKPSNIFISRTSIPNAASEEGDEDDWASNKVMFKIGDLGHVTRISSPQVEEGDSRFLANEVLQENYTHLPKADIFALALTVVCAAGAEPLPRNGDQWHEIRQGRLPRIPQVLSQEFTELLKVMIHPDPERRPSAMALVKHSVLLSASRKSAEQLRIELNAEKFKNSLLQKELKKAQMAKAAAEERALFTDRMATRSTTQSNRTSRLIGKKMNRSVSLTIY
For experiment [8], the target named is WNK2 (Homo sapiens, UniProt Q9Y3S1).
Setting [9] is: read-out: Rucaparib / %Ctrl @ 10000nM, binding competition, % of control.
Setting [10] is: read-out: Talazoparib (BMN 673) / %Ctrl @ 10000nM.
[11] abbreviates: read-out: Niraparib (MK-4827) / %Ctrl @ 10000nM.
Setting [12] is: read-out: Olaparib / %Ctrl @ 10000nM.

Sequence of EGFR(L747-S752del, P753S) (P00533 with tags, fused parts or gaps DEL747-752/P753S): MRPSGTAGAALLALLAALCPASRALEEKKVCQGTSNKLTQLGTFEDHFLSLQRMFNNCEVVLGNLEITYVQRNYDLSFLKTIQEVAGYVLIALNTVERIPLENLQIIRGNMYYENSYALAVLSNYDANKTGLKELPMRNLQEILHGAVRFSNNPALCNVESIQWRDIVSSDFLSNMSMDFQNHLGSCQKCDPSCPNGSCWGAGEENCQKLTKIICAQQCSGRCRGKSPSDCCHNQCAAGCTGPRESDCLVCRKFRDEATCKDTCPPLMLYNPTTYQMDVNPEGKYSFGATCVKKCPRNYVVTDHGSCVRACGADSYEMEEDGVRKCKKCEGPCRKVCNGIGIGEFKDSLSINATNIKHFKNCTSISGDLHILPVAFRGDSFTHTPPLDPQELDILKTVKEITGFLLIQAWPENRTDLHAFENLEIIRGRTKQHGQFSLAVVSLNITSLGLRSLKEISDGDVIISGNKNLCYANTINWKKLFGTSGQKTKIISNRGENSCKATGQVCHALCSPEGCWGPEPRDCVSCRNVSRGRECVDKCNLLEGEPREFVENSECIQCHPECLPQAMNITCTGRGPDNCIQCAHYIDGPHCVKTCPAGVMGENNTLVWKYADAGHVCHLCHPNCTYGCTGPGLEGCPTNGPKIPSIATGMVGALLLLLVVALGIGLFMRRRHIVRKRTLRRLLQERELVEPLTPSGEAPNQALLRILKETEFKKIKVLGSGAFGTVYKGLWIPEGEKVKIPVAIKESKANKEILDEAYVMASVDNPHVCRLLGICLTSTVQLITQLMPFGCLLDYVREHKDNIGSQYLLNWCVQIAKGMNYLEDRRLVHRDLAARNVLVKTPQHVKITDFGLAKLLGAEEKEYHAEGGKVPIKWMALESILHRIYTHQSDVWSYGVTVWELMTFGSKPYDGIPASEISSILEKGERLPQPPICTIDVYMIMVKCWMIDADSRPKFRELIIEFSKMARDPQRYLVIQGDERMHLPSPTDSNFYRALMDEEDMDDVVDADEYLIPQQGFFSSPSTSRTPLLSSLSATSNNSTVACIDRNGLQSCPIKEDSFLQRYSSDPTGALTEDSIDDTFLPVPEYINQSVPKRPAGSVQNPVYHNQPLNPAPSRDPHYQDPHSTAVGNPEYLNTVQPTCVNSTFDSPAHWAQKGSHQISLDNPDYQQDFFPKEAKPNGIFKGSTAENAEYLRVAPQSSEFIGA
Sequence of CDKL3 (Q8IVW4 whole entry): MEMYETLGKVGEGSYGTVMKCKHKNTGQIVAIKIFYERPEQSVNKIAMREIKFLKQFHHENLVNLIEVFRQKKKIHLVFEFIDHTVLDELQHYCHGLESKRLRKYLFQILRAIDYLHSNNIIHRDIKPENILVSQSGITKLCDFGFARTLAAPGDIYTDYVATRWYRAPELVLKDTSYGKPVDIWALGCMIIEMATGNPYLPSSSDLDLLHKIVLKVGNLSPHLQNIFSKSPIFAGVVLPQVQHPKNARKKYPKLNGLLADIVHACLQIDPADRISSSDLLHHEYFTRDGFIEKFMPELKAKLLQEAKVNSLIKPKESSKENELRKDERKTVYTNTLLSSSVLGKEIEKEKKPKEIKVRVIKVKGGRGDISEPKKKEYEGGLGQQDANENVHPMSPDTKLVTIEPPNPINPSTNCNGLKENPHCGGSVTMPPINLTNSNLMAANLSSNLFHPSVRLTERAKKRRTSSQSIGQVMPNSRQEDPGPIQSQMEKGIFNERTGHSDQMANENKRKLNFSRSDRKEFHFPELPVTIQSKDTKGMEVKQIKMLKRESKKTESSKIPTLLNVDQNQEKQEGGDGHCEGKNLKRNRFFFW
T3 sequence (O75582 whole entry): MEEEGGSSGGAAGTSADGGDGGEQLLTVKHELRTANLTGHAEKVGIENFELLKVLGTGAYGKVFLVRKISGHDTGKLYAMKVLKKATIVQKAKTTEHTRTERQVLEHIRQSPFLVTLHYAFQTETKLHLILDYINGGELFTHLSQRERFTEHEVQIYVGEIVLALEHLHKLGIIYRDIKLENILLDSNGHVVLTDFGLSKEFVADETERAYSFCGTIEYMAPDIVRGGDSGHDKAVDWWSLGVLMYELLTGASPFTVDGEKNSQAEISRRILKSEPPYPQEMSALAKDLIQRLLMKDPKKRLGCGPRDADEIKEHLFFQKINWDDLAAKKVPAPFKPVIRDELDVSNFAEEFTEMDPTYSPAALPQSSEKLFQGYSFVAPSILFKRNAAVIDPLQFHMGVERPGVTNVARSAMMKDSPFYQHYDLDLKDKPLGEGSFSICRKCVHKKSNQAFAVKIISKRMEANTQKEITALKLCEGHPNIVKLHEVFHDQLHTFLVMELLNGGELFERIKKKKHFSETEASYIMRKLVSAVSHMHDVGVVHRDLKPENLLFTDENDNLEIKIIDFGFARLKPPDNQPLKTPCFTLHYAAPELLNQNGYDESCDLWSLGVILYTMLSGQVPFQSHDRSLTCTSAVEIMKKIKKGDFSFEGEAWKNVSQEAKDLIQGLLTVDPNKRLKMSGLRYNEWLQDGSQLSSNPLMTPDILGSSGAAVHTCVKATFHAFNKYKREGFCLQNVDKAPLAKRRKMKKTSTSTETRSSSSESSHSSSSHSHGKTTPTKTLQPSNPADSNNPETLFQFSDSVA

As to `CNCc1ccc(-c2[nH]c3cc(F)cc4c3c2CCNC4=O)cc1` [Rucaparib], the percent of control binding at 10 µM in experiment [1] (setting [9]) came out at 100%; in experiment [2] (setting [9]), 71%; in experiment [3] (setting [9]) it was 100%; in experiment [4] (setting [9]) it was 88%; in experiment [5] (setting [9]), 100%; in experiment [6] (setting [9]) it was 77%. The percent of control binding at 10 µM in experiment [7] (setting [9]) was 92%; in experiment [8] (setting [9]), 66%.
For the molecule `Cn1ncnc1[C@H]1c2n[nH]c(=O)c3cc(F)cc(c23)N[C@@H]1c1ccc(F)cc1` [Talazoparib], the percent of control binding at 10 µM in experiment [1] (setting [10]) is 80%; in experiment [2] (setting [10]) it was 100%; in experiment [3] (setting [10]), 98%; in experiment [4] (setting [10]) it was 100%; in experiment [5] (setting [10]), 97%; in experiment [6] (setting [10]), 80%. Further, the percent of control binding at 10 µM in experiment [7] (setting [10]) and in experiment [8] (setting [10]) was 100% each time.
With `NC(=O)c1cccc2cn(-c3ccc([C@@H]4CCCNC4)cc3)nc12` [Niraparib], the percent of control binding at 10 µM worked out at 88% in experiment [1] (setting [11]); 100% in experiment [2] (setting [11]); 93% in experiment [3] (setting [11]); 83% in experiment [4] (setting [11]); 64% in experiment [5] (setting [11]); 96% in experiment [6] (setting [11]). The percent of control binding at 10 µM in experiment [7] (setting [11]) and in experiment [8] (setting [11]) was 100% throughout.
For the molecule `O=C(c1cc(Cc2n[nH]c(=O)c3ccccc23)ccc1F)N1CCN(C(=O)C2CC2)CC1` [Olaparib], the percent of control binding at 10 µM in experiment [1] (setting [12]) was 98%; in experiment [2] (setting [12]), 93%; in experiment [3] (setting [12]) it was 100%; in experiment [4] (setting [12]) it was 100%; in experiment [5] (setting [12]), 100%; in experiment [6] (setting [12]) it was 97%. In addition, the percent of control binding at 10 µM amounted to 100% in experiment [7] (setting [12]) and 76% in experiment [8] (setting [12]).
